# From the supplement of paper PMC5908809
# Key:
# SNK-6 (IL-2 2.5 ng/mL) [1] = assay: relative IC50 (inflection point of fitted viability curve, relative to fitted max inhibition); higher = less sensitive; settings: 72 h
# Method: (§1)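 Drug sensitivity and resistance testing: 5 concentrations over a 10,000-fold range, 72 h at 37 °C, viability by CellTiter-Glo normalised to DMSO and benzethonium chloride controls. IC50 is the inflection point of a logistic fit (min fixed at 0, max fitted), so it is relative to the fitted maximal inhibition. Kept only where fitted max inhibition is at least 50%.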
# NKL (IL-2 2.5 ng/mL) [2] = assay: as above; settings: 72 h
# Method: as §1
# KHYG-1 (IL-2 2.5 ng/mL) [3] = assay: as above; settings: 72 h
# Method: as §1
# DERL-7 (IL-2 2.5 ng/mL) [4] = assay: as above; settings: 72 h
# Method: as §1
# [5] = test system: normal NK cells expanded with K562-aAPC; assay: percent inhibition of viability; higher = more inhibition; settings: 72 h, IL-2 2.5 ng/mL
# Method: (§2)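 Drug sensitivity and resistance testing on K562-aAPC-expanded normal NK cells: 5 concentrations (10-fold steps over a 10,000-fold range), 72 h at 37 °C, viability by CellTiter-Glo normalised to DMSO and benzethonium chloride controls; DSS from the fitted curve.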
# DERL-7 (IL-2 2.5 ng/mL) [6] = assay: as above; settings: 72 h
# IMC-1 (IL-2 20 ng/mL) [7] = assay: as above; settings: 72 h
# KAI3 (IL-2 2.5 ng/mL) [8] = assay: as above; settings: 72 h
# KHYG-1 (IL-2 2.5 ng/mL) [9] = assay: as above; settings: 72 h
# NK-92 (IL-2 2.5 ng/mL) [10] = assay: as above; settings: 72 h
# NK-YS (IL-2 2.5 ng/mL) [11] = assay: as above; settings: 72 h
# NKL (IL-2 2.5 ng/mL) [12] = assay: as above; settings: 72 h
# SNK-6 (IL-2 2.5 ng/mL) [13] = assay: as above; settings: 72 h
# YT (IL-2 2.5 ng/mL) [14] = assay: as above; settings: 72 h
# [15] = test system: normal primary NK cells, pool 1 (3 donors) (IL-2 2.5 ng/mL); assay: as above; settings: 72 h
# [16] = test system: normal primary NK cells, pool 1 (3 donors), resting (IL-2 0 ng/mL); assay: as above; settings: 72 h
# [17] = test system: normal primary NK cells, pool 2 (3 donors) (IL-2 2.5 ng/mL); assay: as above; settings: 72 h
# [18] = test system: normal primary NK cells, pool 3 (3 donors) (IL-2 2.5 ng/mL); assay: as above; settings: 72 h
# [19] = test system: normal NK cells expanded with K562-aAPC; assay: drug sensitivity score (DSS) (DSS units); higher = more sensitive; extreme values may be limits of the assay; settings: 72 h; IL-2 2.5 ng/mL
# Method: as §2
# DERL-7 (IL-2 2.5 ng/mL) [20] = assay: as above; settings: 72 h
# IMC-1 (IL-2 20 ng/mL) [21] = assay: as above; settings: 72 h
# KAI3 (IL-2 2.5 ng/mL) [22] = assay: as above; settings: 72 h
# KHYG-1 (IL-2 2.5 ng/mL) [23] = assay: as above; settings: 72 h
# NK-92 (IL-2 2.5 ng/mL) [24] = assay: as above; settings: 72 h
# NK-YS (IL-2 2.5 ng/mL) [25] = assay: as above; settings: 72 h
# NKL (IL-2 2.5 ng/mL) [26] = assay: as above; settings: 72 h
# SNK-6 (IL-2 2.5 ng/mL) [27] = assay: as above; settings: 72 h
# YT (IL-2 2.5 ng/mL) [28] = assay: as above; settings: 72 h
# [29] = test system: normal primary NK cells, pool 1 (3 donors) (IL-2 2.5 ng/mL); assay: as above; settings: 72 h
# [30] = test system: normal primary NK cells, pool 1 (3 donors), resting (IL-2 0 ng/mL); assay: as above; settings: 72 h
# [31] = test system: normal primary NK cells, pool 2 (3 donors) (IL-2 2.5 ng/mL); assay: as above; settings: 72 h
# [32] = test system: normal primary NK cells, pool 3 (3 donors) (IL-2 2.5 ng/mL); assay: as above; settings: 72 h
smiles,measurement,setting,value
CNC(=O)c1ccc(C)c(-n2c(C)cc(OCc3ccc(F)cc3F)c(Br)c2=O)c1,relative IC50,SNK-6 (IL-2 2.5 ng/mL) [1],> 1000 nM
Cc1ccc(NC(=O)c2ccc(CN3CC[C@H](N(C)C)C3)c(C(F)(F)F)c2)cc1Nc1nccc(-c2cncnc2)n1 [Bafetinib],relative IC50,NKL (IL-2 2.5 ng/mL) [2],136 nM
Cc1nc(Nc2ncc(C(=O)Nc3c(C)cccc3Cl)s2)cc(N2CCN(CCO)CC2)n1 [Dasatinib],relative IC50,NKL (IL-2 2.5 ng/mL) [2],49.8 nM
CN1CCN(C2CCN(C(=O)Nc3cc(Oc4ccc(NC(=O)C5(C(=O)Nc6ccc(F)cc6)CC5)c(F)c4)ccn3)CC2)CC1 [Golvatinib],relative IC50,KHYG-1 (IL-2 2.5 ng/mL) [3],715 nM
COc1cc(C(=O)NC2CCN(C)CC2)c(F)cc1Nc1ncc2c(n1)N(C1CCCC1)CC(F)(F)C(=O)N2C [TAK-960],relative IC50,DERL-7 (IL-2 2.5 ng/mL) [4],> 2500 nM
Cc1cc(Nc2cc(N3CCN(C)CC3)nc(Sc3ccc(NC(=O)C4CC4)cc3)n2)n[nH]1 [Tozasertib] (max concentration tested 10000 nM),percent inhibition of viability,[5]; 1 nM,-7.6%
same,percent inhibition of viability,[5]; 10 nM,-9.83%
same,percent inhibition of viability,[5]; 100 nM,27.1%
same,percent inhibition of viability,[5]; 1000 nM,35.3%
same,percent inhibition of viability,[5]; 10000 nM,38.2%
same,percent inhibition of viability,DERL-7 (IL-2 2.5 ng/mL) [6]; 1 nM,3.54%
same,percent inhibition of viability,DERL-7 (IL-2 2.5 ng/mL) [6]; 10 nM,-3.04%
same,percent inhibition of viability,DERL-7 (IL-2 2.5 ng/mL) [6]; 100 nM,72.5%
same,percent inhibition of viability,DERL-7 (IL-2 2.5 ng/mL) [6]; 1000 nM,62%
same,percent inhibition of viability,DERL-7 (IL-2 2.5 ng/mL) [6]; 10000 nM,82%
same,percent inhibition of viability,IMC-1 (IL-2 20 ng/mL) [7]; 1 nM,-4.29%
same,percent inhibition of viability,IMC-1 (IL-2 20 ng/mL) [7]; 10 nM,1.42%
same,percent inhibition of viability,IMC-1 (IL-2 20 ng/mL) [7]; 100 nM,24%
same,percent inhibition of viability,IMC-1 (IL-2 20 ng/mL) [7]; 1000 nM,78%
same,percent inhibition of viability,IMC-1 (IL-2 20 ng/mL) [7]; 10000 nM,98%
same,percent inhibition of viability,KAI3 (IL-2 2.5 ng/mL) [8]; 1 nM,-4.42%
same,percent inhibition of viability,KAI3 (IL-2 2.5 ng/mL) [8]; 10 nM,3.12%
same,percent inhibition of viability,KAI3 (IL-2 2.5 ng/mL) [8]; 100 nM,20.6%
same,percent inhibition of viability,KAI3 (IL-2 2.5 ng/mL) [8]; 1000 nM,48.2%
same,percent inhibition of viability,KAI3 (IL-2 2.5 ng/mL) [8]; 10000 nM,71.8%
same,percent inhibition of viability,KHYG-1 (IL-2 2.5 ng/mL) [9]; 1 nM,-4.48%
same,percent inhibition of viability,KHYG-1 (IL-2 2.5 ng/mL) [9]; 10 nM,2.48%
same,percent inhibition of viability,KHYG-1 (IL-2 2.5 ng/mL) [9]; 100 nM,32.5%
same,percent inhibition of viability,KHYG-1 (IL-2 2.5 ng/mL) [9]; 1000 nM,67.5%
same,percent inhibition of viability,KHYG-1 (IL-2 2.5 ng/mL) [9]; 10000 nM,85.3%
same,percent inhibition of viability,NK-92 (IL-2 2.5 ng/mL) [10]; 1 nM,-7.92%
same,percent inhibition of viability,NK-92 (IL-2 2.5 ng/mL) [10]; 10 nM,-11.5%
same,percent inhibition of viability,NK-92 (IL-2 2.5 ng/mL) [10]; 100 nM,9.53%
same,percent inhibition of viability,NK-92 (IL-2 2.5 ng/mL) [10]; 1000 nM,52.9%
same,percent inhibition of viability,NK-92 (IL-2 2.5 ng/mL) [10]; 10000 nM,83.8%
same,percent inhibition of viability,NK-YS (IL-2 2.5 ng/mL) [11]; 1 nM,-6.33%
same,percent inhibition of viability,NK-YS (IL-2 2.5 ng/mL) [11]; 10 nM,0.35%
same,percent inhibition of viability,NK-YS (IL-2 2.5 ng/mL) [11]; 100 nM,56.9%
same,percent inhibition of viability,NK-YS (IL-2 2.5 ng/mL) [11]; 1000 nM,67.3%
same,percent inhibition of viability,NK-YS (IL-2 2.5 ng/mL) [11]; 10000 nM,60.3%
same,percent inhibition of viability,NKL (IL-2 2.5 ng/mL) [12]; 1 nM,-9.16%
same,percent inhibition of viability,NKL (IL-2 2.5 ng/mL) [12]; 10 nM,-8.33%
same,percent inhibition of viability,NKL (IL-2 2.5 ng/mL) [12]; 100 nM,-3.2%
same,percent inhibition of viability,NKL (IL-2 2.5 ng/mL) [12]; 1000 nM,4.79%
same,percent inhibition of viability,NKL (IL-2 2.5 ng/mL) [12]; 10000 nM,34.7%
same,percent inhibition of viability,SNK-6 (IL-2 2.5 ng/mL) [13]; 1 nM,-3.9%
same,percent inhibition of viability,SNK-6 (IL-2 2.5 ng/mL) [13]; 10 nM,3.63%
same,percent inhibition of viability,SNK-6 (IL-2 2.5 ng/mL) [13]; 100 nM,58.1%
same,percent inhibition of viability,SNK-6 (IL-2 2.5 ng/mL) [13]; 1000 nM,74.3%
same,percent inhibition of viability,SNK-6 (IL-2 2.5 ng/mL) [13]; 10000 nM,61.7%
same,percent inhibition of viability,YT (IL-2 2.5 ng/mL) [14]; 1 nM,-3.46%
same,percent inhibition of viability,YT (IL-2 2.5 ng/mL) [14]; 10 nM,-2.16%
same,percent inhibition of viability,YT (IL-2 2.5 ng/mL) [14]; 100 nM,13.1%
same,percent inhibition of viability,YT (IL-2 2.5 ng/mL) [14]; 1000 nM,25.8%
same,percent inhibition of viability,YT (IL-2 2.5 ng/mL) [14]; 10000 nM,47.4%
same,percent inhibition of viability,[15]; 1 nM,-7.78%
same,percent inhibition of viability,[15]; 10 nM,-12.4%
same,percent inhibition of viability,[15]; 100 nM,-6.71%
same,percent inhibition of viability,[15]; 1000 nM,5.08%
same,percent inhibition of viability,[15]; 10000 nM,43.4%
same,percent inhibition of viability,[16]; 1 nM,2.84%
same,percent inhibition of viability,[16]; 10 nM,-2.46%
same,percent inhibition of viability,[16]; 100 nM,-18%
same,percent inhibition of viability,[16]; 1000 nM,-4.6%
same,percent inhibition of viability,[16]; 10000 nM,15.2%
same,percent inhibition of viability,[17]; 1 nM,-9.84%
same,percent inhibition of viability,[17]; 10 nM,-5.4%
same,percent inhibition of viability,[17]; 100 nM,-5.23%
same,percent inhibition of viability,[17]; 1000 nM,-0.34%
same,percent inhibition of viability,[17]; 10000 nM,41.1%
same,percent inhibition of viability,[18]; 1 nM,-7.32%
same,percent inhibition of viability,[18]; 10 nM,-4.94%
same,percent inhibition of viability,[18]; 100 nM,0.04%
same,percent inhibition of viability,[18]; 1000 nM,-0.07%
same,percent inhibition of viability,[18]; 10000 nM,19.2%
same,drug sensitivity score,[19],9.96
same,drug sensitivity score,DERL-7 (IL-2 2.5 ng/mL) [20],23.6
same,drug sensitivity score,IMC-1 (IL-2 20 ng/mL) [21],17.4
same,drug sensitivity score,KAI3 (IL-2 2.5 ng/mL) [22],11.6
same,drug sensitivity score,KHYG-1 (IL-2 2.5 ng/mL) [23],16.6
same,drug sensitivity score,NK-92 (IL-2 2.5 ng/mL) [24],11.4
same,drug sensitivity score,NK-YS (IL-2 2.5 ng/mL) [25],19.2
same,drug sensitivity score,NKL (IL-2 2.5 ng/mL) [26],2.42
same,drug sensitivity score,SNK-6 (IL-2 2.5 ng/mL) [27],20.9
same,drug sensitivity score,YT (IL-2 2.5 ng/mL) [28],5.97
same,drug sensitivity score,[29],3.05
same,drug sensitivity score,[30],0.14
same,drug sensitivity score,[31],2.02
same,drug sensitivity score,[32],0.53
